Legend:
[1] = molecular target: T1, Prostaglandin G/H synthase 1 (Rattus norvegicus, UniProt Q63921); type: functional
T1 sequence (Q63921 whole entry): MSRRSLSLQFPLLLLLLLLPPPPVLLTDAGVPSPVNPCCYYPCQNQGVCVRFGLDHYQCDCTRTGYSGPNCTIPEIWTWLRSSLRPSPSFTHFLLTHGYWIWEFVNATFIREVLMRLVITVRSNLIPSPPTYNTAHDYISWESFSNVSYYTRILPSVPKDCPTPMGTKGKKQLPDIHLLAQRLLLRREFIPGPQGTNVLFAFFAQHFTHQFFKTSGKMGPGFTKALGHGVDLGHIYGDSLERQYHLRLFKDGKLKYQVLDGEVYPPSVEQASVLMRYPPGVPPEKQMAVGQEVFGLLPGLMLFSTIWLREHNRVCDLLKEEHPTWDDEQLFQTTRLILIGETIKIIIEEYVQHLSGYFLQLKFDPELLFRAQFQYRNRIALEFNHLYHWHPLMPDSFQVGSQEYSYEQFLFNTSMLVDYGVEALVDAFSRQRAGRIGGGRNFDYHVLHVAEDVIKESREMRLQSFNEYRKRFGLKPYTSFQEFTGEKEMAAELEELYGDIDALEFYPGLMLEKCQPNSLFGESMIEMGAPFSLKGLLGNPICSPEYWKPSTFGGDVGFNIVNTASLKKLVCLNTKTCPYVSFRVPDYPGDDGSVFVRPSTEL

[2] = molecular target: T2, Oxysterols receptor LXR-beta (Homo sapiens, UniProt P55055); type: functional
T2 sequence (P55055 whole entry): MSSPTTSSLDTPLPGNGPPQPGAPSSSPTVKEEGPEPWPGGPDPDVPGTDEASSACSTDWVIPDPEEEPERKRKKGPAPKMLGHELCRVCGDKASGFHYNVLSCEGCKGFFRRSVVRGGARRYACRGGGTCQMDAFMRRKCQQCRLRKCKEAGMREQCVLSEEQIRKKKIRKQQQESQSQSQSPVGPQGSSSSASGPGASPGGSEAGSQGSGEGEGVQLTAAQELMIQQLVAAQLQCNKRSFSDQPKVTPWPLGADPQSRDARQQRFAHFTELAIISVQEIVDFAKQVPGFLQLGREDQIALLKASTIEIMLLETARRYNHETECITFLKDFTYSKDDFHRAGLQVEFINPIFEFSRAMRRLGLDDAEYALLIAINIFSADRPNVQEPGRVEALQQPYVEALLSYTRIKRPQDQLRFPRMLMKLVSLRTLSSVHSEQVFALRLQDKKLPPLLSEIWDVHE

[3] = molecular target: T3, Oxysterols receptor LXR-alpha (Homo sapiens, UniProt Q13133); type: functional
T3 sequence (Q13133 whole entry): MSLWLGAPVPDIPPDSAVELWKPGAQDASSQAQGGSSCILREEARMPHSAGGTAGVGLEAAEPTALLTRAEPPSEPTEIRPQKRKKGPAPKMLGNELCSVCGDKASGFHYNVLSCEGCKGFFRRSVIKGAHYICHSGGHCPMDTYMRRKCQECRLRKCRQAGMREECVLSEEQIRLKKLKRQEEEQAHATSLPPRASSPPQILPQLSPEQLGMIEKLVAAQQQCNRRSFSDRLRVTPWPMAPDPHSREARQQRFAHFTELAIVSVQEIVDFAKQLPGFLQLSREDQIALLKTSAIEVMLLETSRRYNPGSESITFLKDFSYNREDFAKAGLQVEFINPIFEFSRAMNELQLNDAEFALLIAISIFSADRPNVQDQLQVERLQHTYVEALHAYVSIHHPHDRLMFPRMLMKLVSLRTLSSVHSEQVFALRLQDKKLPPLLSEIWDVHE

[4] = molecular target: T3, Oxysterols receptor LXR-alpha; type: functional; remark: listed apart in the source
[5] = molecular target: T4, Bile acid receptor (Homo sapiens, UniProt Q96RI1); type: functional
T4 sequence (Q96RI1 whole entry): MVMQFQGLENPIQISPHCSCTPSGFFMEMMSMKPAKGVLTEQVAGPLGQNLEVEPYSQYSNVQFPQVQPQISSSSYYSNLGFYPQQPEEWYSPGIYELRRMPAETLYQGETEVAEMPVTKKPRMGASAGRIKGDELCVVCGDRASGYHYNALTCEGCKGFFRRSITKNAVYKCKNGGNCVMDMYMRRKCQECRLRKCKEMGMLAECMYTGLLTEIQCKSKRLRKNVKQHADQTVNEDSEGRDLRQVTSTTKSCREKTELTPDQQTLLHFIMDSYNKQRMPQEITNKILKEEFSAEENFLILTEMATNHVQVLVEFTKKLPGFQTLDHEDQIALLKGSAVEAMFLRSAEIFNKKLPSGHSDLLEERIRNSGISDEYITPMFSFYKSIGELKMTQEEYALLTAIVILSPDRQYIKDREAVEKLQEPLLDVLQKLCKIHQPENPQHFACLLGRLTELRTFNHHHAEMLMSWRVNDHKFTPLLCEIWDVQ

[6] = molecular target: T5, Retinoic acid receptor gamma (Homo sapiens, UniProt P13631); type: functional, cell-based
T5 sequence (P13631 whole entry): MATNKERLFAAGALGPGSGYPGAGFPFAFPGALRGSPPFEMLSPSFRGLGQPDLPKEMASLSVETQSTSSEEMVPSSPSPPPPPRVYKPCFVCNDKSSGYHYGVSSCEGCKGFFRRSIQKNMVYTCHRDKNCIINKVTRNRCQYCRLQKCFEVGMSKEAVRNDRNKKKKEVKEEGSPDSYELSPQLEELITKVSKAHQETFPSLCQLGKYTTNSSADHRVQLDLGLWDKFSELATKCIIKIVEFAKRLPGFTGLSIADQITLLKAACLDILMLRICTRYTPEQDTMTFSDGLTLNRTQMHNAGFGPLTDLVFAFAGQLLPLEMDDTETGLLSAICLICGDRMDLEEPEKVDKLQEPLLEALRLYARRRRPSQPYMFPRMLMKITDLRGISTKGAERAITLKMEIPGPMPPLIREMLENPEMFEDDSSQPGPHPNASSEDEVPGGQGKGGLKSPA

[7] = molecular target: T5, Retinoic acid receptor gamma; type: functional, cell-based; remark: listed apart in the source
Also: assay procedure not described here.

AC50 [2]	AC50 [3]	AC50 [4]	AC50 [5]	AC50 [6]	AC50 [7]	Structure (SMILES)	AC50 [1]
						COC(=O)[C@@H]1CC2=CC(=O)CC[C@]2(C)[C@@]23O[C@@H]2C[C@@]2(C)[C@@H](CC[C@@]24CCC(=O)O4)[C@H]13 [EPLERENONE]	> 30 µM
2.7 µM	> 30 µM	6.3 µM	> 30 µM	> 30 µM	2.6 µM	COc1ccc2c(c1)C(=O)N(CCc1ccc(S(=O)(=O)NC(=O)NC3CCCCC3)cc1)C(=O)C2(C)C [GLIQUIDONE]	

Reference: ChEMBL document CHEMBL5291721, “A preclinical secondary pharmacology resource illuminates target-adverse drug reaction associations of marketed drugs” (Nat Commun, 2023)
